Data taken from BindingDB's records for doi:10.1016/j.ejmech.2014.09.039 (2014).

Biological target: Neuronal acetylcholine receptor subunit alpha-7 (Homo sapiens, UniProt P36544)
Experiment: Positive allosteric modulation at human alpha7 nACHR expressed in Xenopus oocyte assessed as potentiation of ACh-induced current at holding potential of -80 mV measured as ACh EC50 at 1 uM by electrophysiology (Rvb = 176 uM)

Chain of Neuronal acetylcholine receptor subunit alpha-7 (P36544 whole entry): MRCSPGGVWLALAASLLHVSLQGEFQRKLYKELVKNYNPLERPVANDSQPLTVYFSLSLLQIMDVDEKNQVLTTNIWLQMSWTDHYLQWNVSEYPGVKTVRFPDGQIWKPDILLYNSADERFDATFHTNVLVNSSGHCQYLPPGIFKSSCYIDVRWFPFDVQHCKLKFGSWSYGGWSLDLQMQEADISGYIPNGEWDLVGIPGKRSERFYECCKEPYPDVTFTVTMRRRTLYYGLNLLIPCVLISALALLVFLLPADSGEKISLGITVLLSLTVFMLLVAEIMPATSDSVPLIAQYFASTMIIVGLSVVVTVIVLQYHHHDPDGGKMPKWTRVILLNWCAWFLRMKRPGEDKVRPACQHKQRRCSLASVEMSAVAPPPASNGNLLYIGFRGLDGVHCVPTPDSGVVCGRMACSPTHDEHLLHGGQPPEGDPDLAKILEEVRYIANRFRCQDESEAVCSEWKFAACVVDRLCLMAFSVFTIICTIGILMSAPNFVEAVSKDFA

EC50 [µM] | Structure (SMILES)
125 | O=C(/C=C/c1ccc(O)cc1O)c1cc(O)ccc1O
56 | O=C(/C=C/c1ccc(O)cc1)c1cc(O)ccc1O
